Counter-ions that a name gives are not always drawn.
target: T1, human mGluR5 (Homo sapiens, UniProt P41594); experiment: Experiment for receptor function of mGluR5 (Ca2+-dependent fluorescence, FLIPR, CHO-K1 cells stably expressing human mGluR5); assay type: cell-based; details: L-glutamic acid 10 μM, Fluo-4 fluorescence
T1 construct: expressed in transfected cells
Summary of the method: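 Fluo-4-loaded CHO-K1 cells pre-incubated 2 min with test substance, then stimulated with L-glutamic acid (final 10 μM) in HBSS, pH 7.4. FLIPR Ca2+ fluorescence normalized to glutamate alone (100%) and glutamate with 10 μM MPEP (0%); IC50 estimated by logistic fit.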

T1 sequence (P41594 21-1212): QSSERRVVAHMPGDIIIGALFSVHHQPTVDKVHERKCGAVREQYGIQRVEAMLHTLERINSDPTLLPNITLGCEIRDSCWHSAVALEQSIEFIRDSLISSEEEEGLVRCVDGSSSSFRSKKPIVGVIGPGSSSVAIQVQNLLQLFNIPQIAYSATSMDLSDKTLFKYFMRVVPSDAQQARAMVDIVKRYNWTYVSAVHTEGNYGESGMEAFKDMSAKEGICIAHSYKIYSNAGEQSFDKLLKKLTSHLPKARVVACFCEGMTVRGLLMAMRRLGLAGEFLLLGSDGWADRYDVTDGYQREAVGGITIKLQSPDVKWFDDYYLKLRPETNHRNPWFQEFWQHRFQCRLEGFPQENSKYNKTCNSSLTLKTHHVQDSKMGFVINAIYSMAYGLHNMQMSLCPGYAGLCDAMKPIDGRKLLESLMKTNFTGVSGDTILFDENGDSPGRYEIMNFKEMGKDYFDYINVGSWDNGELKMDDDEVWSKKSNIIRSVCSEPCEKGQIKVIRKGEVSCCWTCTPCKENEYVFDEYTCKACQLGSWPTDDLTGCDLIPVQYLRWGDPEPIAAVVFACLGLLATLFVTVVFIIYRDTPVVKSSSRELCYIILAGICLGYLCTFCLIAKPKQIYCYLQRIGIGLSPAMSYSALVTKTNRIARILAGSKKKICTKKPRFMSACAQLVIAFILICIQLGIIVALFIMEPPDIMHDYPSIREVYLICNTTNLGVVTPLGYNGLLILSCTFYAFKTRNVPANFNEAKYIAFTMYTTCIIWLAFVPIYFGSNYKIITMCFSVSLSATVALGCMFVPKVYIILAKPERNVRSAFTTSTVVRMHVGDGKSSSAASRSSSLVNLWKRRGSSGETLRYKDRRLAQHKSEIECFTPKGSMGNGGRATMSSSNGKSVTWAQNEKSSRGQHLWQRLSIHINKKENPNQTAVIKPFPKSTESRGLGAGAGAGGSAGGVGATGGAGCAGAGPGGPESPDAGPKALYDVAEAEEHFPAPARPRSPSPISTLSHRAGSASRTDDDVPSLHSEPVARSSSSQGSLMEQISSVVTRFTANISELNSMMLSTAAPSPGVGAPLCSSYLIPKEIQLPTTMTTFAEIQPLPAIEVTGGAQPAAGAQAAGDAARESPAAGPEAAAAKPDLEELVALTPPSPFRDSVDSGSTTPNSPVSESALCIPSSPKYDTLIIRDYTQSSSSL

| IC50 [nM] | Structure (SMILES) |
| --- | --- |
| 41.4 | c1ccc(COc2cc(-c3cnccn3)c3c(n2)CCCCC3)nc1 [Example 234, 4-(Pyrazin-2-yl)-2-(pyridin-2-ylmethoxy)-6,7,8,9-tetrahydro-5H-cyclohepta[b]pyridine hydrochloride] |
| 34.5 | C=C1CCc2c(-c3cncnc3)cc(OCc3ccccn3)nc21 [Example 237, 7-Methylidene-2-(pyridin-2-ylmethoxy)-4-(pyrimidin-5-yl)-6,7-dihydro-5H-cyclopenta[b]pyridine] |
| 24 | CCC1CCc2c(-c3cncnc3)cc(OCc3ccccn3)nc21 (centres unmarked) [Example 240, 7-Ethyl-2-(pyridin-2-ylmethoxy)-4-(pyrimidin-5-yl)-6,7-dihydro-5H-cyclopenta[b]pyridine] |
| 39 | N#Cc1cccc(COc2cc(-c3cccnc3)c3c(n2)CCC3)c1 [Example 245, 3-({[4-(Pyridin-3-yl)-6,7-dihydro-5H-cyclopenta[b]pyridin-2-yl]oxy}methyl)benzonitrile] |
| 52 | N#Cc1ccc(COc2cc(-c3cncc(CO)c3)c3c(n2)CCC3)cc1 [Example 247, 4-[({4-[5-(Hydroxymethyl)pyridin-3-yl]-6,7-dihydro-5H-cyclopenta[b]pyridin-2-yl}oxy)methyl]benzonitrile] |
| 95 | OCc1cncc(-c2cc(OCc3ccc(F)cc3)nc3c2CCC3)c1 [Example 248, (5-{2-[(4-Fluorobenzyl)oxy]-6,7-dihydro-5H-cyclopenta[b]pyridin-4-yl}pyridin-3-yl)methanol] |
| 53 | OCc1cncc(-c2cc(OCc3cccc(F)c3)nc3c2CCC3)c1 [Example 249, (5-{2-[(3-Fluorobenzyl)oxy]-6,7-dihydro-5H-cyclopenta[b]pyridin-4-yl}pyridin-3-yl)methanol] |
| 10.6 | N#Cc1ccc(COc2cc(-c3cncc(F)c3)c3c(n2)CCC3)nc1 [Example 250, 6-({[4-(5-Fluoropyridin-3-yl)-6,7-dihydro-5H-cyclopenta[b]pyridin-2-yl]oxy}methyl)pyridine-3-carbonitrile] |
| 94.3 | N#Cc1cccc(COc2cc(-c3ccnc(F)c3)c3c(n2)CCC3)c1 [Example 251, 3-({[4-(2-Fluoropyridin-4-yl)-6,7-dihydro-5H-cyclopenta[b]pyridin-2-yl]oxy}methyl)benzonitrile] |
| 13.5 | N#Cc1ccc(COc2cc(-c3ccnc(F)c3)c3c(n2)CCC3)nc1 [Example 252, 6-({[4-(2-Fluoropyridin-4-yl)-6,7-dihydro-5H-cyclopenta[b]pyridin-2-yl]oxy}methyl)pyridine-3-carbonitrile] |
| 80 | N#Cc1cccc(COc2cc(-c3cncc(CO)c3)c3c(n2)CCC3)c1 [Example 253, 3-[({4-[5-(Hydroxymethyl)pyridin-3-yl]-6,7-dihydro-5H-cyclopenta[b]pyridin-2-yl}oxy)methyl]benzonitrile] |
| 62.8 | Cc1cc(COc2cc(-c3cncnc3)c3c(n2)CCC3)ccn1 [Example 256, 2-[(2-Methylpyridin-4-yl)methoxy]-4-(pyrimidin-5-yl)-6,7-dihydro-5H-cyclopenta[b]pyridine] |
| 10.1 | N#Cc1ccc(COc2cc(-c3cncnc3)c3c(n2)CCC3)cc1 [Example 258, 4-({[4-(Pyrimidin-5-yl)-6,7-dihydro-5H-cyclopenta[b]pyridin-2-yl]oxy}methyl)benzonitrile] |
| 27.3 | Nc1ncc(-c2cc(OCc3ccccn3)nc3c2CCC3)cn1 [Example 259, 5-[2-(Pyridin-2-ylmethoxy)-6,7-dihydro-5H-cyclopenta[b]pyridin-4-yl]pyrimidin-2-amine hydrochloride] |
| 64 | Cc1ncc(-c2cc(OCc3ccc(C#N)cc3)nc3c2CCC3)cn1 [Example 261, 4-({[4-(2-Methylpyrimidin-5-yl)-6,7-dihydro-5H-cyclopenta[b]pyridin-2-yl]oxy}methyl)benzonitrile] |
| 82 | Cc1cc(COc2cc(-c3cnc(C)nc3)c3c(n2)CCC3)ccn1 [Example 262, 2-[(2-Methylpyridin-4-yl)methoxy]-4-(2-methylpyrimidin-5-yl)-6,7-dihydro-5H-cyclopenta[b]pyridine] |
| 111 | Nc1ncc(-c2cc(OCc3cccc(F)c3)nc3c2CCC3)cn1 [Example 263, 5-{2-[(3-Fluorobenzyl)oxy]-6,7-dihydro-5H-cyclopenta[b]pyridin-4-yl}pyrimidin-2-amine] |
| 126 | N#Cc1ccc(COc2cc(-c3cnc(N)nc3)c3c(n2)CCC3)cc1 [Example 264, 4-({[4-(2-Aminopyrimidin-5-yl)-6,7-dihydro-5H-cyclopenta[b]pyridin-2-yl]oxy}methyl)benzonitrile] |
| 46.8 | N#Cc1cccc(COc2cc(-c3cnc(N)nc3)c3c(n2)CCC3)c1 [Example 265, 3-({[4-(2-Aminopyrimidin-5-yl)-6,7-dihydro-5H-cyclopenta[b]pyridin-2-yl]oxy}methyl)benzonitrile] |
| 71 | Cc1ncc(-c2cc(OCc3cccc(F)c3)nc3c2CCC3)cn1 [Example 266, 2-[(3-Fluorobenzyl)oxy]-4-(2-methylpyrimidin-5-yl)-6,7-dihydro-5H-cyclopenta[b]pyridine] |
| 55 | Cc1ncc(-c2cc(OCc3nc(C#N)co3)nc3c2CCC3)cn1 [Example 267, 2-({[4-(2-Methylpyrimidin-5-yl)-6,7-dihydro-5H-cyclopenta[b]pyridin-2-yl]oxy}methyl)-1,3-oxazole-4-carbonitrile] |
| 67 | OCc1cncc(-c2cc(OCc3ccc(F)cn3)nc3c2CCC3)n1 [Example 269, (6-{2-[(5-Fluoropyridin-2-yl)methoxy]-6,7-dihydro-5H-cyclopenta[b]pyridin-4-yl}pyrazin-2-yl)methanol] |
| 186 | N#Cc1cccc(COc2cc(-c3cncc(CO)n3)c3c(n2)CCC3)c1 [Example 270, 3-[({4-[6-(Hydroxymethyl)pyrazin-2-yl]-6,7-dihydro-5H-cyclopenta[b]pyridin-2-yl}oxy)methyl]benzonitrile] |
| 92 | c1ccc(COc2cc(-c3cccnn3)c3c(n2)CCC3)nc1 [Example 271, 4-(Pyridazin-3-yl)-2-(pyridin-2-ylmethoxy)-6,7-dihydro-5H-cyclopenta[b]pyridine] |
| 62 | N#Cc1ccc(COc2cc(-c3cccnn3)c3c(n2)CCC3)cc1 [Example 273, 4-({[4-(Pyridazin-3-yl)-6,7-dihydro-5H-cyclopenta[b]pyridin-2-yl]oxy}methyl)benzonitrile] |
| 61 | Cn1nccc1-c1cc(OCc2ccc(C#N)cn2)nc2c1CCC2 [Example 274, 6-({[4-(1-Methyl-1H-pyrazol-5-yl)-6,7-dihydro-5H-cyclopenta[b]pyridin-2-yl]oxy}methyl)pyridine-3-carbo nitrile] |
| 82 | N#Cc1ccc(COc2cc(-c3cccnn3)c3c(n2)CCC3)nc1 [Example 275, 6-({[4-(Pyridazin-3-yl)-6,7-dihydro-5H-cyclopenta[b]pyridin-2-yl]oxy}methyl)pyridine-3-carbonitrile] |
| 28 | N#Cc1ccc(COc2cc(-c3cncc(CO)c3)c3c(n2)CCCC3)nc1 [Example 276, 6-[({4-[5-(Hydroxymethyl)pyridin-3-yl]-5,6,7,8-tetrahydroquinolin-2-yl}oxy)methyl]pyridine-3-carbonitrile] |
| 87 | N#Cc1ccc(COc2cc(-c3cncnc3)c3c(n2)CCCC3)cc1 [Example 278, 4-({[4-(Pyrimidin-5-yl)-5,6,7,8-tetrahydroquinolin-2-yl]oxy}methyl)benzonitrile] |

Source: patent US20150225404A1, “PYRIDINE DERIVATIVE AND MEDICINE” (NIPPON SHINYAKU CO., LTD., priority 2012, published 2015)
